Experimental data published in ChEMBL document CHEMBL5303304, “EUbOPEN Chemogenomics Library - IncuCyte” (2023).

Experiments:
Assay type in all cases: toxicity, cell-based
Fibroblast = assay: Incucyte cell viability with human fibroblast; conditions: 10 µM, compound concentration 10 uM
U2OS = assay: Incucyte cell viability with U2OS; conditions: human, 10 µM, compound concentration 10 uM
HEK-293T = assay: Incucyte cell viability with HEK293T; conditions: human, 10 µM, compound concentration 10 uM
Further: unitless GR value; below 1 slowed growth and below 0 cell loss.

With `CC/C(=C(\c1ccc(O)cc1)c1ccc(OCCN(C)C)cc1)c1ccccc1` [AFIMOXIFENE] the “Growth Rate” value (Fibroblast; 0 h, replicate number 1) was 0.22, the “Growth Rate” value (Fibroblast; 6 h, replicate number 1) was -0.74 and the “Growth Rate” value (Fibroblast; 6 h, replicate number 2) was 0.4. For the same compound, the “Growth Rate” value (Fibroblast; 12 h, replicate number 2) was 0.3, the “Growth Rate” value (Fibroblast; 18 h, replicate number 2) was 0.13 and the “Growth Rate” value (Fibroblast; 24 h, replicate number 2) was 0.18. For the same compound, the “Growth Rate” value (U2OS; 0 h, replicate number 2) was -0.96, the “Growth Rate” value (U2OS; 24 h, replicate number 1) was 0.9 and the “Growth Rate” value (HEK-293T; 6 h, replicate number 1) was -0.92. The “Growth Rate” value (HEK-293T; 6 h, replicate number 2) was -0.67, the “Growth Rate” value (HEK-293T; 12 h, replicate number 1) was -0.87 and the “Growth Rate” value (HEK-293T; 12 h, replicate number 2) was -0.46. The “Growth Rate” value (HEK-293T; 18 h, replicate number 1) was -0.68, the “Growth Rate” value (HEK-293T; 18 h, replicate number 2) was -0.33 and the “Growth Rate” value (HEK-293T; 24 h, replicate number 1) was -0.63. The “Growth Rate” value (HEK-293T; 24 h, replicate number 2) was -0.26.
With `CCc1cc2c(cc1N1CCC(N3CCOCC3)CC1)C(C)(C)c1[nH]c3cc(C#N)ccc3c1C2=O` [ALECTINIB] the “Growth Rate” value (Fibroblast; 6 h, replicate number 2) was 0.58, the “Growth Rate” value (Fibroblast; 24 h, replicate number 2) was 0.89 and the “Growth Rate” value (U2OS; 6 h, replicate number 1) was 0.77. For the same compound, the “Growth Rate” value (U2OS; 6 h, replicate number 2) was 0.78, the “Growth Rate” value (U2OS; 12 h, replicate number 2) was 0.78 and the “Growth Rate” value (U2OS; 18 h, replicate number 2) was 1. For the same compound, the “Growth Rate” value (U2OS; 24 h, replicate number 1) was 0.91, the “Growth Rate” value (U2OS; 24 h, replicate number 2) was 0.94 and the “Growth Rate” value (HEK-293T; 6 h, replicate number 1) was 0.56. The “Growth Rate” value (HEK-293T; 6 h, replicate number 2) was 0.59, the “Growth Rate” value (HEK-293T; 12 h, replicate number 1) was 0.83 and the “Growth Rate” value (HEK-293T; 12 h, replicate number 2) was 0.86. The “Growth Rate” value (HEK-293T; 18 h, replicate number 1) was 0.95.
In the case of `Cc1cc([N+](=O)[O-])c(NS(=O)(=O)c2cccc(C(=O)O)c2)cc1-c1cccnc1` [ALOFANIB], the “Growth Rate” value (Fibroblast; 0 h, replicate number 2) is reported as 0.25, the “Growth Rate” value (Fibroblast; 6 h, replicate number 1) is reported as 0.27 and the “Growth Rate” value (Fibroblast; 6 h, replicate number 2) is reported as 0.26. The “Growth Rate” value (Fibroblast; 12 h, replicate number 1) was 0.56, the “Growth Rate” value (Fibroblast; 12 h, replicate number 2) was 0.74 and the “Growth Rate” value (Fibroblast; 18 h, replicate number 1) was 0.5. The “Growth Rate” value (Fibroblast; 18 h, replicate number 2) was 0.99, the “Growth Rate” value (Fibroblast; 24 h, replicate number 1) was 0.8 and the “Growth Rate” value (Fibroblast; 24 h, replicate number 2) was 0.92. For the same compound, the “Growth Rate” value (U2OS; 0 h, replicate number 1) was -0.35, the “Growth Rate” value (U2OS; 0 h, replicate number 2) was 0.06 and the “Growth Rate” value (U2OS; 6 h, replicate number 1) was 0.68. The “Growth Rate” value (U2OS; 6 h, replicate number 2) was 0.28, the “Growth Rate” value (U2OS; 12 h, replicate number 1) was 0.39 and the “Growth Rate” value (U2OS; 12 h, replicate number 2) was 0.55. The “Growth Rate” value (U2OS; 18 h, replicate number 1) was 0.93, the “Growth Rate” value (U2OS; 18 h, replicate number 2) was 0.64 and the “Growth Rate” value (U2OS; 24 h, replicate number 2) was 0.6. For the same compound, the “Growth Rate” value (HEK-293T; 0 h, replicate number 1) was -0.38, the “Growth Rate” value (HEK-293T; 6 h, replicate number 2) was 0.57 and the “Growth Rate” value (HEK-293T; 12 h, replicate number 1) was 0.91. For the same compound, the “Growth Rate” value (HEK-293T; 12 h, replicate number 2) was 0.68, the “Growth Rate” value (HEK-293T; 18 h, replicate number 1) was 0.65 and the “Growth Rate” value (HEK-293T; 18 h, replicate number 2) was 0.78. For the same compound, the “Growth Rate” value (HEK-293T; 24 h, replicate number 1) was 0.75 and the “Growth Rate” value (HEK-293T; 24 h, replicate number 2) was 0.79.
For `O=c1cc(-c2ccccc2)oc2c1ccc1ccccc12` [ALPHA-NAPHTHOFLAVONE], the “Growth Rate” value (Fibroblast; 0 h, replicate number 1) was 0.97, the “Growth Rate” value (Fibroblast; 24 h, replicate number 1) was 0.65 and the “Growth Rate” value (U2OS; 0 h, replicate number 2) was -0.73. The “Growth Rate” value (U2OS; 6 h, replicate number 1) was -0.07, the “Growth Rate” value (U2OS; 6 h, replicate number 2) was 0.41 and the “Growth Rate” value (U2OS; 12 h, replicate number 1) was 0.67. The “Growth Rate” value (U2OS; 12 h, replicate number 2) was 0.63, the “Growth Rate” value (U2OS; 18 h, replicate number 1) was 0.92 and the “Growth Rate” value (U2OS; 18 h, replicate number 2) was 0.66. The “Growth Rate” value (HEK-293T; 6 h, replicate number 1) was 0.31, the “Growth Rate” value (HEK-293T; 6 h, replicate number 2) was 0.53 and the “Growth Rate” value (HEK-293T; 12 h, replicate number 2) was 0.81. The “Growth Rate” value (HEK-293T; 18 h, replicate number 1) was 0.95, the “Growth Rate” value (HEK-293T; 18 h, replicate number 2) was 0.8 and the “Growth Rate” value (HEK-293T; 24 h, replicate number 2) was 0.88.
`CCCCC[C@H](O)/C=C/[C@H]1[C@H](O)CC(=O)[C@@H]1CCCCCCC(=O)O` [ALPROSTADIL] was tested, and the “Growth Rate” value (Fibroblast; 0 h, replicate number 1) was -1, the “Growth Rate” value (Fibroblast; 12 h, replicate number 2) was 0.37 and the “Growth Rate” value (Fibroblast; 18 h, replicate number 2) was 0.79. The “Growth Rate” value (Fibroblast; 24 h, replicate number 2) was 0.9, the “Growth Rate” value (U2OS; 0 h, replicate number 2) was 0.57 and the “Growth Rate” value (U2OS; 6 h, replicate number 1) was 0.87. The “Growth Rate” value (U2OS; 12 h, replicate number 1) was 0.94, the “Growth Rate” value (U2OS; 12 h, replicate number 2) was 0.76 and the “Growth Rate” value (U2OS; 18 h, replicate number 2) was 0.76. The “Growth Rate” value (U2OS; 24 h, replicate number 1) was 0.93, the “Growth Rate” value (U2OS; 24 h, replicate number 2) was 0.92 and the “Growth Rate” value (HEK-293T; 0 h, replicate number 1) was -0.3. For the same compound, the “Growth Rate” value (HEK-293T; 0 h, replicate number 2) was 0.55, the “Growth Rate” value (HEK-293T; 6 h, replicate number 1) was 0.47 and the “Growth Rate” value (HEK-293T; 12 h, replicate number 1) was 0.82. For the same compound, the “Growth Rate” value (HEK-293T; 12 h, replicate number 2) was 0.97 and the “Growth Rate” value (HEK-293T; 18 h, replicate number 2) was 0.98.
For `CC(=O)Nc1nc2c(Oc3cc(-c4ccc(C(F)(F)F)cc4)ncn3)cccc2s1` [AMG-517], the “Growth Rate” value (Fibroblast; 0 h, replicate number 1) was -0.1, the “Growth Rate” value (Fibroblast; 0 h, replicate number 2) was -1 and the “Growth Rate” value (Fibroblast; 6 h, replicate number 1) was -0.08. The “Growth Rate” value (Fibroblast; 6 h, replicate number 2) was -0.6, the “Growth Rate” value (Fibroblast; 12 h, replicate number 1) was -1 and the “Growth Rate” value (Fibroblast; 12 h, replicate number 2) was 0.8. The “Growth Rate” value (U2OS; 0 h, replicate number 2) was -0.37, the “Growth Rate” value (U2OS; 6 h, replicate number 1) was 0.79 and the “Growth Rate” value (U2OS; 6 h, replicate number 2) was 0.81. The “Growth Rate” value (U2OS; 12 h, replicate number 1) was 0.8, the “Growth Rate” value (U2OS; 12 h, replicate number 2) was 0.88 and the “Growth Rate” value (U2OS; 18 h, replicate number 2) was 0.91. The “Growth Rate” value (U2OS; 24 h, replicate number 1) was 0.86, the “Growth Rate” value (U2OS; 24 h, replicate number 2) was 0.96 and the “Growth Rate” value (HEK-293T; 0 h, replicate number 1) was 0.87. The “Growth Rate” value (HEK-293T; 6 h, replicate number 1) was 0.63, the “Growth Rate” value (HEK-293T; 6 h, replicate number 2) was 0.69 and the “Growth Rate” value (HEK-293T; 12 h, replicate number 1) was 0.82. The “Growth Rate” value (HEK-293T; 18 h, replicate number 1) was 0.67, the “Growth Rate” value (HEK-293T; 24 h, replicate number 1) was 0.89 and the “Growth Rate” value (HEK-293T; 24 h, replicate number 2) was 0.99.
With `Cc1csc(-c2nnc(Nc3ccc(Oc4ncccc4-c4ccnc(N)n4)cc3)c3ccccc23)c1` [AMG-900] the “Growth Rate” value (Fibroblast; 0 h, replicate number 2) was -0.73, the “Growth Rate” value (Fibroblast; 12 h, replicate number 2) was 0.98 and the “Growth Rate” value (Fibroblast; 24 h, replicate number 1) was 0.75. The “Growth Rate” value (U2OS; 6 h, replicate number 1) was 0.79, the “Growth Rate” value (U2OS; 6 h, replicate number 2) was 0.9 and the “Growth Rate” value (U2OS; 12 h, replicate number 1) was 0.57. For the same compound, the “Growth Rate” value (U2OS; 12 h, replicate number 2) was 0.16, the “Growth Rate” value (U2OS; 18 h, replicate number 1) was 0.27 and the “Growth Rate” value (U2OS; 18 h, replicate number 2) was 0.17. The “Growth Rate” value (U2OS; 24 h, replicate number 1) was 0.33, the “Growth Rate” value (U2OS; 24 h, replicate number 2) was 0.41 and the “Growth Rate” value (HEK-293T; 0 h, replicate number 1) was -0.13. The “Growth Rate” value (HEK-293T; 0 h, replicate number 2) was -0.21.
